The text below walks through data of patent US9879029B2, “ERK inhibitors” (Eli Lilly and Company, priority 2014, dated 2018).

The subject of assay [1] is human melanoma cells A-375. As to the kind of experiment: Xenograft tumor model A-375. The format is in vivo, female NIH nude rats. The following applies: oral; for Regression (%): p <0.001. On the procedure: (§1) The purpose of this assay is to measure reduction in tumor volume in response to test compound administration. Expand human colorectal cancer cells HCT116 (ATCC, #CCL-247) or human non-small cell lung cancer cells NCI-H358 (ATCC, # CRL-5807) in culture, harvest and inject 5×10e^6 cells in 200 μL of 1:1 HBSS+matrigel solution subcutaneously on to the rear right flank of female athymic nude mice (22-25 gm, Harlan Laboratories). Expand human pancreatic cancer cells SW1990 (ATCC, # CRL-2172) in culture, harvest and inject 2×10e^6 cells in 200 μL of 1:1 HBSS+matrigel solution subcutaneously on to the rear right flank of female athymic nude mice (22-25 gm, Harlan Laboratories). Expand human pancreatic cancer cells MIA PACA-2 (ATCC, # CRL-1420) or human non-small cell lung cancer cells A549 (ATCC, # CCl-185) in culture, harvest and inject 5×10e^6 cells in 200 μL of 1:1 HBSS+matrigel solution subcutaneously on to the rear right flank of female CB-17 SCID mice (22-25 gm, Charles River Laboratories International Inc.). Expand human melanoma cells A-375 (ATCC, # CRL-1619) in culture, harvest and inject 5×10e^6 cells in 200 μL of 1:1 HBSS+matrigel solution subcutaneously on to the rear right flank of female NIH nude rats (140-160 gm, Taconic Farms). Measure tumor growth and body weight twice per week beginning the seventh day after the implantation. When tumor sizes reach 200-400 mm^3, randomize animals and group into groups of eight to ten animals. Prepare test compound in an appropriate vehicle (vehicle: 1% HEC/0.25% Tween 80/0.05% Antifoam) and administer by oral gavage for 14 to 28 days. Tumor response is determined by tumor volume measurement performed twice a week during the course of treatment.

The subject of assay [2] is human non-small cell lung cancer cells A549. As to the kind of experiment: Xenograft tumor model A549. The format is in vivo, female CB-17 SCID mice. The note with it: oral. On the procedure:
as §1, with “Measure tumor growth and body weight twice per week beginning the seventh day after the implantation. When tumor sizes reach 200-400 mm^3, randomize animals and group into groups of eight to ten animals. Prepare test compound in an appropriate vehicle (vehicle: 1% HEC/0.25% Tween 80/0.05% Antifoam) and administer by oral gavage for 14 to 28 days.” left out

Assay [3] concerns ERK substrate (RSK) phosphorylation in HCT116 colorectal cancer cell line. As to the kind of experiment: ERK1/2 cell mechanistic assay (pRSK1 Alphascreen assay). The format is cell-based. The note with it: Homo sapiens, HCT-116, 2 h; HCT116 cells, two hours, Rel IC50; read-out: pRSK1 inhibition IC50. On the procedure: The purpose of this assay is to measure the ability of compounds to inhibit ERK signaling in cancer cells in vitro. Carry out the pRSK1 Alphascreen assay using the HCT116 colorectal cancer cell line (ATCC, # CCL-247). Routinely culture HCT116 cells in Dulbecco's Modified Eagle's Medium (DMEM) (Hyclone, #SH30022) growth medium containing 5% Fetal Bovine Serum (FBS) (Gibco, #16000-044) in T-150 flasks and incubate in a 5% CO2 incubator at 37° C. Harvest cells when they become confluent and freeze in freezing medium at 1×10e^7 cells/mL as “assay ready frozen cells” and store in liquid nitrogen. To run the assay, plate 40,000 HCT116 cells/well in a 96-well tissue culture plate and incubate at 37° C. in a 5% CO2 incubator overnight. Test compounds at 10 concentrations starting at a 20 μM top concentration and utilize a 1:3 dilution scheme (20 μM to 0.001 μM) with a final DMSO concentration of 0.5% (v/v). Add compounds in 20 μL serum free growth medium and incubate at 37° C. for two hours. Remove growth medium and add 50 μL of 1× lysis buffer [Cell Signaling Technology, #9803] containing 1×holt protease and phosphatase inhibitor cocktail [Thermo, #78441] to each well and incubate at room temperature for 10 minutes on a shaker. […] Measure the fluorescence intensity in each well by reading the plates in ENVISION® (PerkinElmer) plate reader. […]
Background: In Alpha technology, singlet oxygen from a donor bead excites a nearby acceptor bead.

The test system of assay [4] is human non-small cell lung cancer cells NCI-H358. As to the kind of experiment: Xenograft tumor model NCI-H358. The format is in vivo, female athymic nude mice. The note with it: oral, p <0.001. On the procedure:
as §1, with “Measure tumor growth and body weight twice per week beginning the seventh day after the implantation. When tumor sizes reach 200-400 mm^3, randomize animals and group into groups of eight to ten animals. Prepare test compound in an appropriate vehicle (vehicle: 1% HEC/0.25% Tween 80/0.05% Antifoam) and administer by oral gavage for 14 to 28 days.” left out

The test system of assay [5] is human pancreatic cancer cells SW1990. As to the kind of experiment: Xenograft tumor model SW1990. The format is in vivo, female athymic nude mice. The note with it: oral. On the procedure:
as §1, with “Measure tumor growth and body weight twice per week beginning the seventh day after the implantation. When tumor sizes reach 200-400 mm^3, randomize animals and group into groups of eight to ten animals. Prepare test compound in an appropriate vehicle (vehicle: 1% HEC/0.25% Tween 80/0.05% Antifoam) and administer by oral gavage for 14 to 28 days.” left out

A word on the IC50: it is the concentration at which inhibition is half-maximal. Regarding `COCCN1C(=O)c2cc(-c3ccnc(Nc4ccnn4C)c3)sc2C1(C)C` [Example 1, 5-(2-Methoxyethyl)-6,6-dimethyl-2-{2-[(1-methyl-1H-pyrazol-5-yl)amino]pyridin-4-yl}-5,6-dihydro-4H-thieno[2,3-c]pyrrol-4-one], the “Regression (%)” value is on record as −60% in assay [1] (A-375, 3 mg/kg BID); −47% in assay [1] (A-375, 15 mg/kg BID); −13% in assay [4] (NCI-H358, 25 mg/kg BID); −35% in assay [4] (NCI-H358, 50 mg/kg BID). In addition, the “Delta T/C (%)” value in assay [1] (A-375, 3 mg/kg QD, p 0.852) is recorded as 10%; in assay [2] (A549, 10 mg/kg BID, p 0.471), 13%; in assay [2] (A549, 30 mg/kg BID, p <0.001), 66%; in assay [5] (SW1990, 10 mg/kg BID, p 0.364) it was 24%; in assay [5] (SW1990, 30 mg/kg BID, p 0.005), 64%. Also, the IC50 in assay [3] amounted to 261 nM.
